In the assay the test system is Hedgehog signaling pathway. Description: Gli-Luc luciferase reporter gene assay in C3H10T1/2/Gli-Luc cells under Shh-N stimulation. It counts as cell-based. The conditions noted are these: Mus musculus, C3H 10T1/2, 24 h, luciferase RLU, read-out: biological activity: IC50 of the inhibitory activities of compounds on the hedgehog pathway. The method, boiled down:
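C3H10T1/2 cells stably carrying a Gli-responsive luciferase reporter were stimulated with 30 nM Shh-N conditioned medium plus compound (7-point dilutions, duplicate) for 24 h at 37 °C. Luciferase luminescence read from lysates; IC50 by sigmoidal fit of RLU versus log concentration.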

Where only a bound is given, the exact number is not on record here.

Broadly, the IC50 is the concentration that inhibits the measured activity by half.

Consider `COc1c(-c2ccc(N3C[C@@H](C)O[C@H](C)C3)cc2)cnc2c(-c3ccc(C#N)cc3)cccc12` [Embodiment 112], for which the concentration for half-maximal inhibition (IC50) is ≤ 50 nM.

Turning to `COc1c(-c2ccc(N3C[C@H](C)C[C@H](C)C3)cc2)cnc2c(-c3ccc(C#N)cc3)cccc12` [Embodiment 113], the half-maximal inhibitory concentration (IC50) was ≤ 50 nM.

For the molecule `COc1c(-c2ccc(N3C[C@@H](C)O[C@@H](C)C3)cc2)cnc2c(-c3nc4ccccc4[nH]3)cccc12` [Embodiment 114, (2S,6R)-4-(4-(8-(1H-benzo[d]imidazol-2-yl)-4-methoxyquinolin-3-yl)phenyl)-2,6-dimethylmorpholine], the 50% inhibitory concentration (IC50) was in the range of 1000 to 5000 nM.

As for `COc1c(-c2ccc(N3C[C@@H](C)O[C@@H](C)C3)cc2)cnc2c(-c3nc(C#N)cs3)cccc12` [Embodiment 115, 2-(3-(4-((2S,6R)-2,6-dimethylmorpholino)phenyl)-4-methoxyquinolin-8-yl)thiazole-4-carbonitrile], the IC50 is 1000 to 5000 nM.

`COc1c(-c2ccc(N3C[C@@H](C)O[C@@H](C)C3)cc2)cnc2c(C3CCC(C#N)CC3)cccc12` (stereo partly drawn) [Embodiment 116, 4-(3-(4-((2S,6R)-2,6-dimethylmorpholino)phenyl)-4-methoxyquinolin-8-yl) cyclohexane carbonitrile]: the half-inhibitory concentration (IC50) is 100 to 500 nM.

In the case of `COc1c(-c2ccc(N3C[C@@H](C)O[C@@H](C)C3)nc2)cnc2c(NC(=O)C(C)(C)C)cccc12` [Embodiment 117, N-(3-(6-((2S,6R)-2,6-dimethylmorpholino)pyridin-3-yl)-4-methoxyquinolin-8-yl) pivalamide], the IC50 was 1000 to 5000 nM.

For the molecule `C[C@@H]1CN(c2ccc(-c3cnc4c(-c5ccc(C#N)cc5)cccc4c3Cl)cc2)C[C@H](C)O1` [Embodiment 118, 4-(4-chloro-3-(4-((2S,6R)-2,6-dimethylmorpholino)phenyl)quinolin-8-yl)benzonitrile], the 50% inhibitory concentration (IC50) lay within 50 to 100 nM.

Turning to `C[C@@H]1CN(c2ccc(-c3cnc4c(-c5ccc(C#N)cc5)cccc4c3N(C)C)cc2)C[C@H](C)O1` [Embodiment 119, 4-(4-(dimethylamino)-3-(4-((2S,6R)-2,6-dimethylmorpholino)phenyl)quinolin-8-yl) benzonitrile], the concentration for half-maximal inhibition (IC50) fell in the range of 50 to 100 nM.

As to `C[C@@H]1CN(c2ccc(-c3cnc4c(-c5ccc(C#N)cc5)cccc4c3S(C)(=O)=O)cc2)C[C@H](C)O1` [Embodiment 120, 4-(3-(4-((2S,6R)-2,6-dimethylmorpholino)phenyl)-4-(methylsulfonyl)quinolin-8-yl) benzonitrile], the 50% inhibitory concentration (IC50) fell in the range of 500 to 1000 nM.

Consider `C[C@@H]1CN(c2ccc(-c3cnc4c(-c5ccc(C#N)cc5)cccc4c3C3CC3)cc2)C[C@H](C)O1` [Embodiment 121, 4-(4-cyclopropyl-3-(4-((2S,6R)-2,6-dimethylmorpholino)phenyl)quinolin-8-yl) benzonitrile], for which the IC50 was ≤ 50 nM.

As to `Cc1c(-c2ccc(N3C[C@@H](C)O[C@@H](C)C3)cc2)cnc2c(-c3ccc(C#N)cc3)cccc12` [Embodiment 122], the half-inhibitory concentration (IC50) fell in the range of 50 to 100 nM.

Turning to `C[C@@H]1CN(c2ccc(-c3cnc4c(-c5ccc(C#N)cc5)cccc4c3C#N)cc2)C[C@H](C)O1` [Embodiment 124], the 50% inhibitory concentration (IC50) lay within 50 to 100 nM.

For `Cc1cc(C#N)ccc1-c1cccc2c(C3CC3)c(-c3ccc(N4C[C@@H](C)O[C@@H](C)C4)nc3)cnc12` [Embodiment 125], the half-inhibitory concentration (IC50) is ≤ 50 nM.

Consider `C[C@@H]1CN(c2ccc(-c3cnc4c(-c5ccc(C#N)cc5)cccc4c3N3CCC3)cc2)C[C@H](C)O1` [Embodiment 126, 4-(4-(azetidin-1-yl)-3-(4-((2S,6R)-2,6-dimethylmorpholino)phenyl)quinolin-8-yl) benzonitrile], for which the concentration for half-maximal inhibition (IC50) is 100 to 500 nM.

On to `C[C@@H]1CN(c2ccc(-c3cnc4c(-c5ccc(C#N)cc5)cccc4c3)cc2)C[C@H](C)O1` [Embodiment 127, 4-(3-(4-((2S,6R)-2,6-dimethylmorpholino)phenyl)quinolin-8-yl)benzonitrile], for which the IC50 lay within 100 to 500 nM.

For `COC(=O)c1c(-c2ccc(N3C[C@@H](C)O[C@@H](C)C3)cc2)cnc2c(-c3ccc(C#N)cc3)cccc12` [Embodiment 128, methyl 8-(4-cyanophenyl)-3-(4-((2S,6R)-2,6-dimethylmorpholino)phenyl)quinoline-4-carboxylate], the IC50 lay within 500 to 1000 nM.

Take `CC(=O)Nc1c(-c2ccc(N3C[C@@H](C)O[C@@H](C)C3)cc2)cnc2c(-c3ccc(C#N)cc3)cccc12` [Embodiment 129, N-(8-(4-cyanophenyl)-3-(4-((2S,6R)-2,6-dimethylmorpholino)phenyl)quinolin-4-yl) acetamide]: the IC50 fell in the range of 50 to 100 nM.

As to `C[C@@H]1CN(c2ccc(-c3cnc4c(-c5ccc(C#N)cc5)cccc4c3NS(C)(=O)=O)cc2)C[C@H](C)O1` [Embodiment 130], the IC50 fell in the range of 500 to 1000 nM.

Consider `Cc1c(-c2ccc(N3C[C@@H](C)O[C@@H](C)C3)nc2)cnc2c(-c3ccc(C#N)cc3)cccc12` [Embodiment 132, 4-(3-(6-((2S,6R)-2,6-dimethylmorpholino)pyridin-3-yl)-4-methylquinolin-8-yl) benzonitrile], for which the IC50 is ≤ 50 nM.

For `CCc1c(-c2ccc(N3C[C@@H](C)O[C@@H](C)C3)nc2)cnc2c(-c3ccc(C#N)cc3)cccc12` [Embodiment 133], the IC50 is ≤ 50 nM.

Take `C[C@@H]1CN(c2ccc(-c3cnc4c(-c5ccc(C#N)cc5)cccc4c3C3CC3)cn2)C[C@H](C)O1` [Embodiment 134]: the IC50 is ≤ 50 nM.

`COc1c(-c2ccc(N3C[C@@H](C)O[C@@H](C)C3)cc2)cnc2c(-c3ccc(C#N)cc3)cc(Cl)cc12` [Embodiment 135, 4-(6-chloro-3-(4-((2S,6R)-2,6-dimethylmorpholino)phenyl)-4-methoxyquinolin-8-yl) benzonitrile]: the IC50 lay in the range of 100 to 500 nM.

`COc1c(-c2ccc(N3CC(C)OC(C)C3)cc2)cnc2c(-c3ccc(C#N)cc3)cc(F)cc12` (centres unmarked) [Embodiment 136, 4-(3-(4-(2,6-dimethylmorpholino)phenyl)-6-fluoro-4-methoxyquinolin-8-yl) benzonitrile]: the IC50 is 50 to 100 nM.

In the case of `COc1c(-c2ccc(N3C[C@@H](C)O[C@@H](C)C3)cc2)cnc2c(-c3ccc(OC(F)(F)F)cc3)cc(F)cc12` [Embodiment 137], the IC50 was 100 to 500 nM.

As to `COc1c(-c2ccc(N3C[C@@H](C)O[C@@H](C)C3)cc2)cnc2c(-c3ccc(C#N)cc3)ccc(F)c12` [Embodiment 138], the IC50 is ≤ 50 nM.

Take `C[C@@H]1CN(c2ccc(-c3cnc4c(-c5ccc(C#N)cc5)cccc4c3N3CCC3)cn2)C[C@H](C)O1` [Embodiment 139, 4-(4-(azetidin-1-yl)-3-(6-((2S,6R)-2,6-dimethylmorpholino)pyridin-3-yl)quinolin-8-yl) benzonitrile]: the IC50 was 50 to 100 nM.

For the molecule `CCC(=O)N1[C@H](C)CN(c2ccc(-c3cnc4c(-c5ccc(C#N)cc5)cccc4c3O)cn2)C[C@@H]1C` [Embodiment 140, 4-(3-(6-((3S,5R)-3,5-dimethyl-4-propionylpiperazin-1-yl)pyridin-3-yl)-4-hydroxyquinolin-8-yl)benzonitrile], the IC50 lay in the range of 500 to 1000 nM.

Regarding `COc1c(-c2ccc(N3C[C@@H](C)O[C@@H](C)C3)cc2)c(C(F)(F)F)nc2c(-c3ccc(C#N)cc3)cccc12` [Embodiment 141, 4-(3-(4-((2S,6R)-2,6-dimethylmorpholino)phenyl)-4-methoxy-2-(trifluoromethyl)quinolin-8-yl)benzonitrile], the IC50 lay within 100 to 500 nM.

Consider `COc1cc(-c2ccc(N3C[C@@H](C)O[C@@H](C)C3)cc2)nc2cccc(-c3ccc(C#N)cc3)c12` [Embodiment 142, 4-(2-(4-((2R,6S)-2,6-dimethylmorpholino)phenyl)-4-methoxyquinolin-5-yl) benzonitrile], for which the IC50 is 500 to 1000 nM.

With `CCOc1c(-c2ccc(N3C[C@@H](C)O[C@@H](C)C3)cc2)cnc2c(-c3ccc(C#N)cc3)cccc12` [Embodiment 143, 4-(3-(4-((2S,6R)-2,6-dimethylmorpholino)phenyl)-4-ethoxyquinolin-8-yl)benzonitrile], the IC50 was ≤ 50 nM.

With `CC(C)Oc1c(-c2ccc(N3C[C@@H](C)O[C@@H](C)C3)cc2)cnc2c(-c3ccc(C#N)cc3)cccc12` [Embodiment 144], the concentration for half-maximal inhibition (IC50) lay within 100 to 500 nM.

In the case of `C[C@@H]1CN(c2ccc(-c3cnc4c(-c5ccc(C#N)cc5)cccc4c3OC(F)F)cc2)C[C@H](C)O1` [Embodiment 145], the IC50 is ≤ 50 nM.

Take `C[C@@H]1CN(c2ccc(-c3cnc4c(-c5ccc(C#N)cc5)cccc4c3OCCN(C)C)cc2)C[C@H](C)O1` [Embodiment 146]: the IC50 fell in the range of 500 to 1000 nM.

As for `COc1c(-c2ccc(N3C[C@@H](C)O[C@@H](C)C3)cc2)cnc2c(-c3ccc(C#N)cc3)ccnc12` [Embodiment 147, 4-(7-(4-((2S,6R)-2,6-dimethylmorpholino)phenyl)-8-methoxy-1,5-naphthyridin-4-yl) benzonitrile], the IC50 lay within 100 to 500 nM.

With `COc1c(-c2ccc(N3C[C@@H](C)O[C@@H](C)C3)cc2)cnc2c(-c3ccc(C#N)cc3)nccc12` [Embodiment 148, 4-(3-(4-((2S,6R)-2,6-dimethylmorpholino)phenyl)-4-methoxy-1,7-naphthyridin-8-yl) benzonitrile], the IC50 was 50 to 100 nM.

As to `CCC(=O)N1[C@H](C)CN(c2ccc(-c3cnc4c(-c5ccc(C#N)cc5)nccc4c3OC)cn2)C[C@@H]1C` [Embodiment 149, 4-(3-(6-((3S,5R)-3,5-dimethyl-4-propionylpiperazizin-1-yl)pyridin-3-yl)-4-methoxy-1,7-naphthyridin-8-yl)benzonitrile], the IC50 is ≤ 50 nM.

Turning to `C[C@@H]1CN(c2ccc(-c3c([O-])c4cccc(-c5ccc(C#N)cc5)c4n[n+]3C)cc2)C[C@H](C)O1` [Embodiment 150, 8-(4-cyanophenyl)-3-(4-((2R,6S)-2,6-dimethylmorpholino)phenyl)-2-methylcinnolin-2-ium-4-olate], the IC50 was 500 to 1000 nM.

`CCC(=O)N1[C@H](C)CN(c2ccc(-c3nnc4c(-c5ccc(C#N)cc5)cccc4c3OC)cn2)C[C@@H]1C` [Embodiment 151, 4-(3-(6-(3,5-dimethyl-4-propionylpiperazin-1-yl)pyridin-3-yl)-4-methoxycinnolin-8-yl)benzonitrile]: the concentration for half-maximal inhibition (IC50) was ≤ 50 nM.

Values taken from patent US9938292B2 (GUANGDONG ZHONGSHENG PHARMACEUTICAL CO., LTD, priority 2014, dated 2018).
